The values that follow come from US20260125360A1, “HERBICIDAL IMIDAZOLE COMPOUNDS” (SYNGENTA CROP PROTECTION AG, priority 2022, published 2026).

Common to all, as to type: in vivo
What all share (settings): 250 g/ha, evaluated after 13 days

Experiment [1] has as its system Amaranthus palmeri (AMAPA). Kind of experiment: Post-emergence herbicide glasshouse test. The method, then: (§1) Seeds of a variety of test species are sown in standard soil in pots Amaranthus palmeri (AMAPA), Amaranthus retoflexus (AMARE), Echinochloa crus-galli (ECHCG), Ipomoea hederacea (IPOHE)). After cultivation for one day (pre-emergence) or after 8 days cultivation (post-emergence) under controlled conditions in a glasshouse (at 24/16° C., day/night; 14 hours light; 65% humidity), the plants are sprayed with an aqueous spray solution derived from the formulation of the technical active ingredient in acetone/water (50:50) solution containing 0.5% Tween 20 (polyoxyethelyene sorbitan monolaurate, CAS RN 9005-64-5). Compounds are applied at 250 g/ha unless otherwise stated. The test plants are then grown in a glasshouse under controlled conditions in a glasshouse (at 24/16° C., day/night; 14 hours light; 65% humidity) and watered twice daily. After 13 days for pre and post-emergence, the test is evaluated for the percentage damage caused to the plant. The biological activities are shown in the following table on a five-point scale (5=81-100%; 4=61-80%; 3=41-60%; 2=21-40%; 1=0-20%).

Experiment [2] deals with Amaranthus retoflexus (AMARE). Kind of experiment: Post-emergence herbicide glasshouse test. On the procedure: as §1
In experiment [3] the test system is Echinochloa crus-galli (ECHCG). The experiment can be described thus: Post-emergence herbicide glasshouse test. On the procedure:
as §1

Experiment [4] concerns Ipomoea hederacea (IPOHE). The experiment can be described thus: Post-emergence herbicide glasshouse test. The method, then:
as §1

In experiment [5] the test system is Amaranthus palmeri (AMAPA). Kind of experiment: Pre-emergence herbicide glasshouse test. On the procedure: as §1
Experiment [6] has as its system Amaranthus retoflexus (AMARE). The experiment can be described thus: Pre-emergence herbicide glasshouse test. On the procedure: as §1
Experiment [7] relates to Echinochloa crus-galli (ECHCG). The experiment can be described thus: Pre-emergence herbicide glasshouse test. The method, then: as §1
Experiment [8] deals with Ipomoea hederacea (IPOHE). The experiment can be described thus: Pre-emergence herbicide glasshouse test. On the procedure: as §1

`Cc1cc(Cn2cc(C(F)(F)F)nc2-c2cnc(Cl)c(F)c2)ns1` [Compound 1.027]: the “percentage damage caused to the plant, AMAPA (five-point scale)” value in experiment [1] is reported as 4 (4=61-80%); in experiment [5], 5 (5=81-100%). Moreover, the “percentage damage caused to the plant, AMARE (five-point scale)” value is 4 (4=61-80%) in experiment [2] and 5 (5=81-100%) in experiment [6]. Besides, the entries for the “percentage damage caused to the plant, ECHCG (five-point scale)” value in experiment [3] and in experiment [7] were 4 (4=61-80%) and 3 (3=41-60%), respectively. Moreover, the “percentage damage caused to the plant, IPOHE (five-point scale)” value in experiment [4] and in experiment [8] was 4 (4=61-80%) each time.

Consider `Fc1cc(-c2nc(C(F)(F)F)cn2Cc2cc(C3CC3)on2)cnc1Cl` [Compound 1.028], for which the “percentage damage caused to the plant, AMAPA (five-point scale)” value in experiment [1] is given as 3 (3=41-60%); in experiment [5], 5 (5=81-100%). The “percentage damage caused to the plant, AMARE (five-point scale)” value in experiment [2] was 4 (4=61-80%); in experiment [6], 5 (5=81-100%). For the same compound, the “percentage damage caused to the plant, ECHCG (five-point scale)” value in experiment [3] and in experiment [7] was 1 (1=0-20%) in each case. Also, the “percentage damage caused to the plant, IPOHE (five-point scale)” value is 1 (1=0-20%) in experiment [4] and 4 (4=61-80%) in experiment [8].

For the compound `Cc1cnc(Cn2cc(C(F)(F)F)nc2-c2ccc(Cl)nc2)s1` [Compound 1.034], the “percentage damage caused to the plant, AMAPA (five-point scale)” value in experiment [1] and in experiment [5] was 5 (5=81-100%) each time. For the same compound, the “percentage damage caused to the plant, AMARE (five-point scale)” value in experiment [2] and in experiment [6] was 5 (5=81-100%) throughout. For the same compound, the “percentage damage caused to the plant, ECHCG (five-point scale)” value in experiment [3] and in experiment [7] was 5 (5=81-100%) in each case. Further, the figures for the “percentage damage caused to the plant, IPOHE (five-point scale)” value in experiment [4] and in experiment [8] were 4 (4=61-80%) and 5 (5=81-100%), respectively.

For the compound `Cc1cc(Cn2cc(C(F)(F)F)nc2-c2ccc(Cl)nc2)nn1C` [Compound 1.044], the entries for the “percentage damage caused to the plant, AMAPA (five-point scale)” value in experiment [1] and in experiment [5] were 4 (4=61-80%) and 5 (5=81-100%), respectively. The entries for the “percentage damage caused to the plant, AMARE (five-point scale)” value in experiment [2] and in experiment [6] were 4 (4=61-80%) and 5 (5=81-100%), respectively. The “percentage damage caused to the plant, ECHCG (five-point scale)” value in experiment [3] and in experiment [7] was 1 (1=0-20%) each time. The figures for the “percentage damage caused to the plant, IPOHE (five-point scale)” value in experiment [4] and in experiment [8] were 4 (4=61-80%) and 1 (1=0-20%), respectively.

`Cn1ccc(Cn2cc(C(F)(F)F)nc2-c2ccc(Cl)nc2)n1` [Compound 1.045]: the “percentage damage caused to the plant, AMAPA (five-point scale)” value in experiment [1] and in experiment [5] was 5 (5=81-100%) each time. The “percentage damage caused to the plant, AMARE (five-point scale)” value in experiment [2] and in experiment [6] was 5 (5=81-100%) each time. The “percentage damage caused to the plant, ECHCG (five-point scale)” value in experiment [3] and in experiment [7] was 1 (1=0-20%) throughout. Further, the “percentage damage caused to the plant, IPOHE (five-point scale)” value in experiment [4] is 4 (4=61-80%); in experiment [8] it was 5 (5=81-100%).

As for `CCc1cc(Cn2cc(C(F)(F)F)nc2-c2ccc(Cl)nc2)no1` [Compound 1.046], the “percentage damage caused to the plant, AMAPA (five-point scale)” value in experiment [1] and in experiment [5] was 5 (5=81-100%) each time. The “percentage damage caused to the plant, AMARE (five-point scale)” value in experiment [2] and in experiment [6] was 5 (5=81-100%) in each case. In addition, the “percentage damage caused to the plant, ECHCG (five-point scale)” value in experiment [3] is 4 (4=61-80%); in experiment [7], 5 (5=81-100%). In addition, the “percentage damage caused to the plant, IPOHE (five-point scale)” value in experiment [4] is reported as 4 (4=61-80%); in experiment [8], 5 (5=81-100%).

Regarding `FC(F)n1ccc(Cn2cc(C(F)(F)F)nc2-c2ccc(Cl)nc2)n1` [Compound 1.051], the “percentage damage caused to the plant, AMAPA (five-point scale)” value in experiment [1] and in experiment [5] was 5 (5=81-100%) in each case. The “percentage damage caused to the plant, AMARE (five-point scale)” value in experiment [2] and in experiment [6] was 5 (5=81-100%) in each case. Also, the “percentage damage caused to the plant, ECHCG (five-point scale)” value in experiment [3] and in experiment [7] was 1 (1=0-20%) in each case. Besides, the results for the “percentage damage caused to the plant, IPOHE (five-point scale)” value in experiment [4] and in experiment [8] were 4 (4=61-80%) and 5 (5=81-100%), respectively.

In the case of `Cn1cc(Cn2cc(C(F)(F)F)nc2-c2ccc(Cl)nc2)nn1` [Compound 1.057], the entries for the “percentage damage caused to the plant, AMAPA (five-point scale)” value in experiment [1] and in experiment [5] were 4 (4=61-80%) and 5 (5=81-100%), respectively. The “percentage damage caused to the plant, AMARE (five-point scale)” value in experiment [2] was 4 (4=61-80%); in experiment [6] it was 5 (5=81-100%). The “percentage damage caused to the plant, ECHCG (five-point scale)” value in experiment [3] and in experiment [7] was 4 (4=61-80%) throughout. In addition, the “percentage damage caused to the plant, IPOHE (five-point scale)” value was 4 (4=61-80%) in experiment [4] and 5 (5=81-100%) in experiment [8].

On to `FC(F)c1cc(Cn2cc(C(F)(F)F)nc2-c2ccc(Cl)nc2)no1` [Compound 1.059], for which the “percentage damage caused to the plant, AMAPA (five-point scale)” value in experiment [1] and in experiment [5] was 5 (5=81-100%) in each case. The “percentage damage caused to the plant, AMARE (five-point scale)” value in experiment [2] and in experiment [6] was 5 (5=81-100%) in each case. For the same compound, the “percentage damage caused to the plant, ECHCG (five-point scale)” value in experiment [3] and in experiment [7] was 5 (5=81-100%) each time. Besides, the “percentage damage caused to the plant, IPOHE (five-point scale)” value in experiment [4] and in experiment [8] was 5 (5=81-100%) in each case.

On to `CCn1ccc(Cn2cc(C(F)(F)F)nc2-c2ccc(Cl)nc2)n1` [Compound 1.063], for which the “percentage damage caused to the plant, AMAPA (five-point scale)” value in experiment [1] and in experiment [5] was 5 (5=81-100%) in each case. The “percentage damage caused to the plant, AMARE (five-point scale)” value in experiment [2] and in experiment [6] was 5 (5=81-100%) each time. Moreover, the “percentage damage caused to the plant, ECHCG (five-point scale)” value in experiment [3] and in experiment [7] was 1 (1=0-20%) throughout. Further, the “percentage damage caused to the plant, IPOHE (five-point scale)” value in experiment [4] is reported as 3 (3=41-60%); in experiment [8], 5 (5=81-100%).

Turning to `Cc1nnc(Cn2cc(C(F)(F)F)nc2-c2ccc(Cl)nc2)s1` [Compound 1.065], the “percentage damage caused to the plant, AMAPA (five-point scale)” value in experiment [1] and in experiment [5] was 5 (5=81-100%) each time. Also, the “percentage damage caused to the plant, AMARE (five-point scale)” value in experiment [2] and in experiment [6] was 5 (5=81-100%) each time. Further, the “percentage damage caused to the plant, ECHCG (five-point scale)” value in experiment [3] and in experiment [7] was 1 (1=0-20%) each time. In addition, the “percentage damage caused to the plant, IPOHE (five-point scale)” value in experiment [4] is on record as 1 (1=0-20%); in experiment [8], 5 (5=81-100%).

For `Cn1nnc(Cn2cc(C(F)(F)F)nc2-c2ccc(Cl)nc2)c1C(F)F` [Compound 1.070], the “percentage damage caused to the plant, AMAPA (five-point scale)” value in experiment [1] is 4 (4=61-80%); in experiment [5] it was 5 (5=81-100%). Further, the “percentage damage caused to the plant, AMARE (five-point scale)” value was 4 (4=61-80%) in experiment [2] and 5 (5=81-100%) in experiment [6]. Also, the “percentage damage caused to the plant, ECHCG (five-point scale)” value in experiment [3] and in experiment [7] was 1 (1=0-20%) in each case. For the same compound, the “percentage damage caused to the plant, IPOHE (five-point scale)” value in experiment [4] and in experiment [8] was 4 (4=61-80%) in each case.

On to `Cc1cc(Cn2cc(C(F)(F)F)nc2-c2ccc(Cl)nc2)no1` [Compound 1.075], for which the “percentage damage caused to the plant, AMAPA (five-point scale)” value in experiment [1] and in experiment [5] was 5 (5=81-100%) throughout. Moreover, the “percentage damage caused to the plant, AMARE (five-point scale)” value in experiment [2] and in experiment [6] was 5 (5=81-100%) throughout. Besides, the “percentage damage caused to the plant, ECHCG (five-point scale)” value in experiment [3] and in experiment [7] was 5 (5=81-100%) throughout. Also, the “percentage damage caused to the plant, IPOHE (five-point scale)” value in experiment [4] and in experiment [8] was 5 (5=81-100%) in each case.
